The values that follow come from EP3724209B1, “ELASTOMERIC PEPTIDE” (Politecnico di Milano, priority 2017, dated 2019).

Where a SMILES comes first, the peptide text is derived from it. Where no end group is shown, it is not given here. [ ]: non-standard residue; d: D form. Tyr(3,5-Br2) = N[C@@H](Cc1cc(Br)c(O)c(Br)c1)C(=O)O

Series [1] has as its system Pseudokirchneriella sub capitata. The protocol: An ecotoxicity test on Pseudokirchneriella sub capitata was performed to evaluate I% (inhibition percentage effect) and IC50 (concentration which determines the 50% inhibition of growth on the population) of the halogenated peptide SDS-Y(3,5 Br)-GAP.
The halogenated peptide SDS-Y(3,5 Br)-GAP was dissolved in water at 100 mg/l and tested at the following concentrations: 50 mg/l, 25 mg/l, 12.5 mg/l and 6.25 mg/l. Each sample was tested in triplicate.
After 72 hours of incubation with the sample or controls, a spectrophotometric test was performed at 670nm as a measure of cell density.

The nature of the next series: solubility test. In kind it is physicochemical. Particulars: for aspect of solution after cooling: 100 mM solution; for aspect of solution after heating: 100 mM solutions (5 mg in 50 µl); for solubility: buffers at pH 3, 7, and 12 (10 mM) and pure water. Here is the method: The isoelectric point (calculated on http://web.expasy.org/compute-pi/) of SDSYGAP (SEQ ID no. 6), comparative, and an oligopeptide according to the present invention, i.e., SDS-Y(3,5 Br)-GAP is 3.8. Three buffers at pH 3, 7, and 12 (10 mM concentration) and pure water were used as solvent for the two oligopeptides.

Series [2] concerns HeLa (Human cervical cancer cells). As to the kind of experiment: CellTiter-Glo Luminescent Cell Viability Assay. In kind it is cell-based. The settings on record: 24 hours incubation. The protocol:
HeLa (Human cervical cancer cells) were grown in DMEM supplemented with 1 mM sodium pyruvate, 10 mM HEPES buffer, 100 U/mL penicillin, 0.1 mg/mL streptomycin, 2 mM glutamine and 10% FBS (hereafter referred to as complete medium), at 37°C in a 5% CO2 humidified atmosphere. Cells were splitted the day before seeding and used within eight passages. The cells were seeded at a density of 7000 cell/cm^2. For evaluating cell viability, the day after the seeding the cell medium was replaced with medium containing the wild type or the halogenated oligopeptides and cells were incubated for 24 hours.
On the technique in general: ATP-based viability assays read luminescence as a measure of living cells.

Series [3] in a line: Dynamic Light Scattering aging study (autocorrelation lag time). Particulars: 10 mM in water. Format: physicochemical. The protocol:
Dynamic Light Scattering measurements were performed on an ALV/CGS-3 Platform-based Goniometer System equipped with an ALV-7004 correlator and an ALV/CGS-3 goniometer. The signal was detected by an ALV-Static and Dynamic Enhancer detection unit. The light source was the second harmonic of a diode-pumped Coherent Innova Nd:YAG laser (λ = 532 nm), linearly polarized in the vertical direction. Measurements were performed at 25°C. Approximately 1 ml of sample solution was transferred into the cylindrical Hellma scattering cell.
The dynamic information on structures present in the peptide solutions were derived from the normalized autocorrelation function g2 (q, τ) of the scattered intensity, which is measured according to g2 (q, τ) = (〈I(q, t)I(q,t+τ)〉)/((〈I(q, t)〉)^2) [formula] where q is the scattering vector, τ is the relaxation time and I is the scattered intensity. Higher relaxation times correspond to larger self-assembled structures. […] Results are reported in Figure 7, as graphs showing the autocorrelation functions of wild type (panel A) or halogenated (panel B) oligopeptide 10 mM in water at 90°C. The autocorrelation functions at 90°C show increasing Lag Time, i.e., increasing dimensions of the self-assembled structures, over time. Table 1 summarizes and compares the results, showing that halogenated oligopeptide form bigger structures compared to the wild type one. This is a further indication that bromine atoms play a role in the aggregation behavior of the peptide sequence. The same aging study was performed in buffer at pH 7, with similar results (data not shown).

As to `C[C@H](NC(=O)CNC(=O)[C@H](Cc1cc(Br)c(O)c(Br)c1)NC(=O)[C@H](CO)NC(=O)[C@H](CC(=O)O)NC(=O)[C@@H](N)CO)C(=O)N1CCC[C@H]1C(=O)O` [SDS-Y(3,5 Br)-GAP] (H-SDS[Tyr(3,5-Br2)]GAP-OH), the ecotoxicity result in series [1] is on record as “not ecotoxic”. Further, the “IC50 (concentration which determines the 50% inhibition of growth on the population)” value in series [1] (72 hours of incubation) came to 54 µg/mL. In “solubility test”, the “aspect of solution after cooling” value is recorded as “milky”, the “aspect of solution after heating” value is “completely clear” and the solubility result was “good solubility properties in all the tested conditions”. Further, the cell viability result in series [2] was “not toxic even at high concentrations”.

Take SDSYGAP [SDSYGAP]: the Lag time is reported as 1.512 ms in series [3] (aging time t=0), 3.826 ms in series [3] (aging time t=1 week), 2.859 ms in series [3] (aging time t=24 h) and 1.919 ms in series [3] (aging time t=48 h). The “aspect of solution after cooling” value in the series “solubility test” is “still clear”. Further, the “aspect of solution after heating” value in the series “solubility test” was “completely clear”. The solubility entry in the series “solubility test” is “good solubility properties in all the tested conditions”. Besides, the cell viability result in series [2] was “not toxic even at high concentrations”.
